These molecules were tested against pure human DP-IV (Homo sapiens, UniProt P27487) (assay: Inhibition of pure human DP-IV in vitro, fluorescent substrate Ala-Pro-AFC, Ki from Dixon plots). Details: not given.
Method: All compounds were tested in vitro against pure human DP-IV (purchased from M & E, Copenhagen, Denmark). […] Ki values were determined using Dixon plots.

Chain of pure human DP-IV (P27487 whole entry): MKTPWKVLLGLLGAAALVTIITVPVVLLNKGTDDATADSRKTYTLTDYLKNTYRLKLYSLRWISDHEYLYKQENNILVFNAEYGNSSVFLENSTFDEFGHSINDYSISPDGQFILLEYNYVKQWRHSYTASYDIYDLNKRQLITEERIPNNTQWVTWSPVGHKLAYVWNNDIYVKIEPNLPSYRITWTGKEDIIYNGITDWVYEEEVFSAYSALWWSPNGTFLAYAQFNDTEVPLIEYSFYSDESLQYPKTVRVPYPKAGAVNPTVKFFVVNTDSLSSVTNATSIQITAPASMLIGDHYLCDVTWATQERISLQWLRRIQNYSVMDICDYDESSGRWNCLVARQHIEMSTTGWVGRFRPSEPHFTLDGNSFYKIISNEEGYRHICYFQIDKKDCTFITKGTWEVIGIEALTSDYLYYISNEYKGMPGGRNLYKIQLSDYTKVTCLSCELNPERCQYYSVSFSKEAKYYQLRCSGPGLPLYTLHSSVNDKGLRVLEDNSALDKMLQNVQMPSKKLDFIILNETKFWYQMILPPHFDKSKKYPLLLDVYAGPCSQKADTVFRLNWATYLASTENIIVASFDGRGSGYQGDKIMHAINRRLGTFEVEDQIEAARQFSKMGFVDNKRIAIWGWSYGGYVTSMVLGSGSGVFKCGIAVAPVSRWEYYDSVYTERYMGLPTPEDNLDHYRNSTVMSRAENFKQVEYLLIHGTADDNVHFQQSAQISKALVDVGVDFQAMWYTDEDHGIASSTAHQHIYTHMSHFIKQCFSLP

| Compound | Ki |
| --- | --- |
| N#C[C@@H]1CSCN1C(=O)[C@@H](N)C1CCCC1 [compound 23] | 0.5 nM |
| N#C[C@@H]1CCCN1C(=O)[C@H]1CC=CC[C@@H]1N [compound 35] | 37 nM |
| N[C@H]1CCCC[C@@H]1C(=O)N1CCC[C@H]1C=O [compound 38] | 9.8 nM |
| CC1(C)C2CC3OB(C4CCCN4C(=O)C4CC=CCC4N)OC3(C)C1C2 (centres unmarked) [compound 44] | 2 nM |
| N[C@@H](CCC(=O)NCCCCCC(=O)OCc1ccccc1)C(=O)N1CCCC1 [compound 59] | 150 nM |
| N[C@@H](CCC(=O)NCCCCCCC(=O)NCCCCCC(=O)O)C(=O)N1CCCC1 [compound 66] | 180 nM |
| N#C[C@@H]1CCCN1C(=O)[C@@H](N)CCC(=O)NCCCCCC(=O)OCc1ccccc1 [compound 97] | 0.5 nM |
| N[C@@H](CCCCNC(=O)CCCNS(=O)(=O)c1c(F)c(F)c(F)c(F)c1F)C(=O)N1CCCC1 [compound 110, H-Lys[CO(CH2)3 NHSO2 Pfp]Prl] | 250 nM |
| N#C[C@@H]1CCCN1C(=O)[C@@H](N)CCCCNC(=O)CCCCCCCN [compound 136] | 17 nM |
| CCCCCCO[C@H](C)[C@H](N)C(=O)N1CCCC1 [compound 143, H-Thr[(CH2)5 CH3]pyrrolidide] | 940 nM |

Same assay, conditions: read-out: Ki against DP-IV; pure human DP-IV, pH 7.8, substrate Ala-Pro-AFC, Dixon plots

| Compound | Ki |
| --- | --- |
| CC[C@H](C)[C@H](N)/C=C1\CCC[C@H]1C#N [compound 150] | 1700 nM |
